These results are taken from PMC5218480 (PLoS ONE, 2017).

For the assay, the system named is MV-4-11 cells. The experiment in a line: Gene expression microarray analysis (Affymetrix PrimeView) and GSEA. Details: RFU PODN (11730768_x_at) / Fold change /veh PODN (11730768_x_at) / RFU LINC00158 (11744669_a_at) / Fold change /veh LINC00158 (11744669_a_at) / RFU DUSP10 (11751237_a_at) / Fold change /veh DUSP10 (11751237_a_at) / RFU ID3 (11757404_x_at) / Fold change /veh ID3 (11757404_x_at) / RFU PLEKHG5 (11737974_s_at) / Fold change /veh PLEKHG5 (11737974_s_at) / RFU LRRC4B (11730491_at) / Fold change /veh LRRC4B (11730491_at) / RFU GIMAP4 (11747438_a_at) / Fold change /veh GIMAP4 (11747438_a_at) / RFU KRT8 (11758183_x_at) / Fold change /veh KRT8 (11758183_x_at) / RFU CNN1 (11734310_a_at) / Fold change /veh CNN1 (11734310_a_at) / RFU VPS37D (11726825_at) / Fold change /veh VPS37D (11726825_at) / RFU C10orf10 (11716522_x_at) / Fold change /veh C10orf10 (11716522_x_at) / RFU KIR2DL2 /// KIR2DL4 /// KIR2DL5A /// KIR2DL5B /// KIR2DS1 /// KIR2DS2 /// KIR2DS3 /// KIR2DS4 /// KIR3DL3 /// KIR3DL3 /// KIR3DS1 (11738374_at) / Fold change /veh KIR2DL2 /// KIR2DL4 /// KIR2DL5A /// KIR2DL5B /// KIR2DS1 /// KIR2DS2 /// KIR2DS3 /// KIR2DS4 /// KIR3DL3 /// KIR3DL3 /// KIR3DS1 (11738374_at) / RFU C1QL1 (11718748_at) / Fold change /veh C1QL1 (11718748_at) / RFU TMPRSS4 (11747572_a_at) / Fold change /veh TMPRSS4 (11747572_a_at) / RFU HAMP (11756126_x_at) / Fold change /veh HAMP (11756126_x_at) / RFU RNFT2 (11725882_a_at) / Fold change /veh RNFT2 (11725882_a_at) / RFU NR4A2 (11747474_a_at) / Fold change /veh NR4A2 (11747474_a_at) / RFU ABCC12 (11746883_a_at) / Fold change /veh ABCC12 (11746883_a_at) / RFU TMEM136 (11760407_x_at) / Fold change /veh TMEM136 (11760407_x_at) / RFU CLDN22 /// WWC2 (11732394_at) / Fold change /veh CLDN22 /// WWC2 (11732394_at) / RFU HLA-DPB1 (11760878_x_at) / Fold change /veh HLA-DPB1 (11760878_x_at) / RFU SPINT1 (11716480_a_at) / Fold change /veh SPINT1 (11716480_a_at) / RFU GAP43 (11754022_s_at) / Fold change /veh GAP43 (11754022_s_at) / RFU A4GNT (11735810_at) / Fold change /veh A4GNT (11735810_at) / RFU PRB3 (11715151_x_at) / Fold change /veh PRB3 (11715151_x_at) / RFU TUBB4B (11761932_at) / Fold change /veh TUBB4B (11761932_at) / RFU CAPN14 (11732068_a_at) / Fold change /veh CAPN14 (11732068_a_at) / RFU TMCC2 (11721928_a_at) / Fold change /veh TMCC2 (11721928_a_at) / RFU IRGQ (11745062_a_at) / Fold change /veh IRGQ (11745062_a_at) / RFU FAM174B (11720279_a_at) / Fold change /veh FAM174B (11720279_a_at) / RFU TMPRSS4 (11748680_a_at) / Fold change /veh TMPRSS4 (11748680_a_at) / RFU FAM212B (11763350_a_at) / Fold change /veh FAM212B (11763350_a_at) / RFU PLEKHG5 (11743358_a_at) / Fold change /veh PLEKHG5 (11743358_a_at) / RFU ZSCAN30 (11745921_a_at) / Fold change /veh ZSCAN30 (11745921_a_at) / RFU CMKLR1 (11741424_a_at) / Fold change /veh CMKLR1 (11741424_a_at) / RFU LOC101060620 /// MAPK8IP1 (11723275_at) / Fold change /veh LOC101060620 /// MAPK8IP1 (11723275_at) / RFU SPTSSB (11747773_x_at) / Fold change /veh SPTSSB (11747773_x_at) / RFU PRSS12 (11739890_at) / Fold change /veh PRSS12 (11739890_at) / RFU BIN1 (11741810_x_at) / Fold change /veh BIN1 (11741810_x_at) / RFU WNT11 (11732464_a_at) / Fold change /veh WNT11 (11732464_a_at) / RFU C10orf10 (11716521_a_at) / Fold change /veh C10orf10 (11716521_a_at) / RFU C5orf56 (11738089_at) / Fold change /veh C5orf56 (11738089_at) / RFU CYB561 (11721691_x_at) / Fold change /veh CYB561 (11721691_x_at) / RFU ANKRD19P (11752326_a_at) / Fold change /veh ANKRD19P (11752326_a_at) / RFU OR2T12 /// OR2T33 /// OR2T8 (11738714_s_at) / Fold change /veh OR2T12 /// OR2T33 /// OR2T8 (11738714_s_at) / RFU VCAN (11748164_a_at) / Fold change /veh VCAN (11748164_a_at) / RFU JSRP1 (11732532_at) / Fold change /veh JSRP1 (11732532_at) / RFU KRTAP10-11 (11738290_x_at) / Fold change /veh KRTAP10-11 (11738290_x_at) / RFU MYO3A (11730013_a_at) / Fold change /veh MYO3A (11730013_a_at) / RFU EBF3 (11725865_a_at) / Fold change /veh EBF3 (11725865_a_at) / RFU CAMK2N1 (11719241_x_at) / Fold change /veh CAMK2N1 (11719241_x_at) / RFU C5orf56 (11738088_a_at) / Fold change /veh C5orf56 (11738088_a_at) / RFU OLFML3 (11715873_a_at) / Fold change /veh OLFML3 (11715873_a_at) / RFU LOC100653217 /// NTM (11731650_a_at) / Fold change /veh LOC100653217 /// NTM (11731650_a_at) / RFU MAPK11 (11762145_a_at) / Fold change /veh MAPK11 (11762145_a_at) / RFU FIZ1 (11724087_x_at) / Fold change /veh FIZ1 (11724087_x_at) / RFU OASL (11726364_x_at) / Fold change /veh OASL (11726364_x_at) / RFU SOX15 (11748057_x_at) / Fold change /veh SOX15 (11748057_x_at) / RFU CD79A (11719716_a_at) / Fold change /veh CD79A (11719716_a_at) / RFU HIST1H1D (11736915_at) / Fold change /veh HIST1H1D (11736915_at) / RFU CASKIN2 (11723855_a_at) / Fold change /veh CASKIN2 (11723855_a_at) / RFU LOC730098 (11760151_x_at) / Fold change /veh LOC730098 (11760151_x_at) / RFU OR4N2 (11742367_at) / Fold change /veh OR4N2 (11742367_at) / RFU PRRT2 (11749266_a_at) / Fold change /veh PRRT2 (11749266_a_at) / RFU SNX32 (11753110_a_at) / Fold change /veh SNX32 (11753110_a_at) / RFU CDHR5 (11726645_a_at) / Fold change /veh CDHR5 (11726645_a_at) / RFU RCAN1 (11760418_a_at) / Fold change /veh RCAN1 (11760418_a_at) / RFU FAM167A (11723789_a_at) / Fold change /veh FAM167A (11723789_a_at) / RFU FAM26E (11764081_at) / Fold change /veh FAM26E (11764081_at) / RFU ISYNA1 (11749810_s_at) / Fold change /veh ISYNA1 (11749810_s_at) / RFU ACY1 (11761880_at) / Fold change /veh ACY1 (11761880_at) / RFU 11764098_at / Fold change /veh 11764098_at / RFU SAMD14 (11745864_x_at) / Fold change /veh SAMD14 (11745864_x_at) / RFU NPB (11741838_a_at) / Fold change /veh NPB (11741838_a_at) / RFU TMPRSS6 (11731388_a_at) / Fold change /veh TMPRSS6 (11731388_a_at) / RFU KRTAP10-2 (11738614_at) / Fold change /veh KRTAP10-2 (11738614_at) / RFU ARHGAP8 /// PRR5-ARHGAP8 (11727945_x_at) / Fold change /veh ARHGAP8 /// PRR5-ARHGAP8 (11727945_x_at) / RFU KRTAP5-7 /// NADSYN1 (11734609_at) / Fold change /veh KRTAP5-7 /// NADSYN1 (11734609_at) / RFU RASL12 (11751679_a_at) / Fold change /veh RASL12 (11751679_a_at) / RFU CDKN2B (11736163_a_at) / Fold change /veh CDKN2B (11736163_a_at) / RFU PRF1 (11729649_at) / Fold change /veh PRF1 (11729649_at) / RFU, ZNF638 /// ZNF638-IT1 / Fold change vs veh, ZNF638 /// ZNF638-IT1 / RFU, PANK3 / Fold change vs veh, PANK3 / RFU, SH3YL1 / Fold change vs veh, SH3YL1 / RFU, ZEB2 / Fold change vs veh, ZEB2 / RFU, NRIP1 / Fold change vs veh, NRIP1 / RFU, PTTG1IP / Fold change vs veh, PTTG1IP / RFU, CAPN2 / Fold change vs veh, CAPN2 / RFU, MED14 / Fold change vs veh, MED14 / RFU, SNORA58 / Fold change vs veh, SNORA58 / RFU, C1orf63 / Fold change vs veh, C1orf63 / RFU, LRRFIP1 / Fold change vs veh, LRRFIP1 / RFU, NDUFAF7 / Fold change vs veh, NDUFAF7 / RFU, SLC12A2 / Fold change vs veh, SLC12A2 / RFU, IBTK / Fold change vs veh, IBTK / RFU, ESF1 / Fold change vs veh, ESF1 / Fold change vs veh, TMEM50B / RFU, TAOK1 / Fold change vs veh, TAOK1 / RFU, ACBD3 / Fold change vs veh, ACBD3 / RFU, TMA16 / Fold change vs veh, TMA16 / RFU, RWDD3 / Fold change vs veh, RWDD3 / RFU, BCAT1 / Fold change vs veh, BCAT1 / RFU, EDEM3 / Fold change vs veh, EDEM3 / RFU, TMEM33 / Fold change vs veh, TMEM33 / RFU, WDR75 / Fold change vs veh, WDR75 / RFU, AHCTF1 / Fold change vs veh, AHCTF1 / RFU, TFRC / Fold change vs veh, TFRC / RFU, ZDHHC17 / Fold change vs veh, ZDHHC17 / RFU, NOM1 / Fold change vs veh, NOM1 / RFU, ARL8B / Fold change vs veh, ARL8B / RFU, ZBTB11 / Fold change vs veh, ZBTB11 / RFU, TAMM41 / Fold change vs veh, TAMM41 / RFU, KIAA1704 /// LOC100996395 / Fold change vs veh, KIAA1704 /// LOC100996395 / RFU, ING1 / Fold change vs veh, ING1 / RFU, TRMT61B / Fold change vs veh, TRMT61B / RFU, FUBP3 / Fold change vs veh, FUBP3 / RFU, TP53 / Fold change vs veh, TP53 / RFU, TNKS2 / Fold change vs veh, TNKS2 / RFU, ZFP14 / Fold change vs veh, ZFP14 / RFU, ACTR2 / Fold change vs veh, ACTR2 / RFU, PPP3R1 / Fold change vs veh, PPP3R1 / RFU, PIK3R1 / Fold change vs veh, PIK3R1 / RFU, HNRNPA1 / Fold change vs veh, HNRNPA1 / RFU, RNF170 / Fold change vs veh, RNF170 / RFU, ZNF28 / Fold change vs veh, ZNF28 / RFU, RNGTT / Fold change vs veh, RNGTT / RFU, OGT / Fold change vs veh, OGT / RFU, BRD1 / Fold change vs veh, BRD1 / RFU, MARS / Fold change vs veh, MARS / RFU, ZNF655 / Fold change vs veh, ZNF655 / RFU, FAHD1 / Fold change vs veh, FAHD1 / RFU, BDP1 / Fold change vs veh, BDP1 / RFU, LRRCC1 / Fold change vs veh, LRRCC1 / RFU, ARID1A / Fold change vs veh, ARID1A / RFU, ZNF146 / Fold change vs veh, ZNF146 / RFU, ZNF330 / Fold change vs veh, ZNF330 / RFU, GPN3 / Fold change vs veh, GPN3 / RFU, C9orf123 / Fold change vs veh, C9orf123 / RFU, N4BP2L2 / Fold change vs veh, N4BP2L2 / RFU, ARFIP1 / Fold change vs veh, ARFIP1 / RFU, FAM179B / Fold change vs veh, FAM179B / RFU, BCL10 / Fold change vs veh, BCL10 / RFU, UHRF1BP1L / Fold change vs veh, UHRF1BP1L / RFU, BET1 / Fold change vs veh, BET1 / RFU, CNOT2 / Fold change vs veh, CNOT2 / RFU, ZNF268 / Fold change vs veh, ZNF268 / Fold change vs veh, ZNF507 / RFU, DGCR2 / Fold change vs veh, DGCR2 / RFU, WDSUB1 / Fold change vs veh, WDSUB1 / Fold change vs veh, HSP90B1 /// MIR3652 / RFU, ADSS / Fold change vs veh, ADSS / RFU, GK / Fold change vs veh, GK / RFU, ZNF148 / Fold change vs veh, ZNF148 / RFU, TAF9 / Fold change vs veh, TAF9 / RFU, SLC1A5 / Fold change vs veh, SLC1A5 / RFU, SLMO2 / Fold change vs veh, SLMO2 / RFU, ABCC4 / Fold change vs veh, ABCC4 / RFU, LOC101060439 /// RAP1B / Fold change vs veh, LOC101060439 /// RAP1B / RFU, RFX7 / Fold change vs veh, RFX7 / RFU, GTPBP10 / Fold change vs veh, GTPBP10 / RFU, CNEP1R1 / Fold change vs veh, CNEP1R1 / RFU, BIVM-ERCC5 /// ERCC5 / Fold change vs veh, BIVM-ERCC5 /// ERCC5 / RFU, ILF3 / Fold change vs veh, ILF3 / RFU 11762660_at / Fold change /veh 11762660_at / RFU VCAN (11757783_s_at) / Fold change /veh VCAN (11757783_s_at) / RFU DDX43 (11728927_at) / Fold change /veh DDX43 (11728927_at) / RFU KRT8 (11758188_x_at) / Fold change /veh KRT8 (11758188_x_at) / RFU NKD1 (11759106_at) / Fold change /veh NKD1 (11759106_at) / RFU SRD5A1 (11742802_a_at) / Fold change /veh SRD5A1 (11742802_a_at) / RFU TPSAB1 /// TPSB2 (11721975_s_at) / Fold change /veh TPSAB1 /// TPSB2 (11721975_s_at) / RFU GSTM3 (11746129_a_at) / Fold change /veh GSTM3 (11746129_a_at) / RFU IL23R (11737362_x_at) / Fold change /veh IL23R (11737362_x_at) / RFU TMEM51 (11727254_a_at) / Fold change /veh TMEM51 (11727254_a_at) / RFU PIWIL2 (11732686_x_at) / Fold change /veh PIWIL2 (11732686_x_at) / RFU ORM1 (11744905_x_at) / Fold change /veh ORM1 (11744905_x_at) / RFU CCDC152 (11743942_at) / Fold change /veh CCDC152 (11743942_at) / RFU ECM1 (11717891_a_at) / Fold change /veh ECM1 (11717891_a_at) / RFU IL23R (11748794_a_at) / Fold change /veh IL23R (11748794_a_at) / RFU TNFAIP8L3 (11732012_x_at) / Fold change /veh TNFAIP8L3 (11732012_x_at) / RFU MBOAT4 (11741988_at) / Fold change /veh MBOAT4 (11741988_at) / RFU 11764193_at / Fold change /veh 11764193_at / RFU TMEM53 (11763286_at) / Fold change /veh TMEM53 (11763286_at) / RFU MAGEB2 (11727129_at) / Fold change /veh MAGEB2 (11727129_at) / RFU TMEM200A (11744735_a_at) / Fold change /veh TMEM200A (11744735_a_at) / RFU CCDC152 (11751479_a_at) / Fold change /veh CCDC152 (11751479_a_at) / RFU FAM211A (11726209_a_at) / Fold change /veh FAM211A (11726209_a_at) / RFU RGS16 (11746705_a_at) / Fold change /veh RGS16 (11746705_a_at) / RFU VCAN (11755009_s_at) / Fold change /veh VCAN (11755009_s_at) / RFU RHOB (11743442_s_at) / Fold change /veh RHOB (11743442_s_at) / RFU RGS16 (11720943_a_at) / Fold change /veh RGS16 (11720943_a_at) / RFU RGS16 (11720944_at) / Fold change /veh RGS16 (11720944_at) / RFU, VPS4B / Fold change vs veh, VPS4B / RFU, CREB1 / Fold change vs veh, CREB1 / RFU, DNAJC13 / Fold change vs veh, DNAJC13 / RFU, GNAQ / Fold change vs veh, GNAQ / RFU, CDK5R1 / Fold change vs veh, CDK5R1 / RFU, ZRANB3 / Fold change vs veh, ZRANB3 / RFU, CUL4A / Fold change vs veh, CUL4A / RFU, CCNY / Fold change vs veh, CCNY / RFU, UFL1 / Fold change vs veh, UFL1 / RFU, COG3 / Fold change vs veh, COG3 / RFU, DIAPH2 / Fold change vs veh, DIAPH2 / RFU, SKA2 / Fold change vs veh, SKA2 / RFU, AFF3 / Fold change vs veh, AFF3 / RFU, LMF1 / Fold change vs veh, LMF1 / RFU, IPO11 / Fold change vs veh, IPO11 / RFU, DFFB / Fold change vs veh, DFFB / RFU, FOXP1 / Fold change vs veh, FOXP1 / RFU, CARD8 / Fold change vs veh, CARD8 / RFU, STRN3 / Fold change vs veh, STRN3 / RFU, ADK / Fold change vs veh, ADK / RFU, RASSF2 / Fold change vs veh, RASSF2 / RFU, WIPF1 / Fold change vs veh, WIPF1 / RFU, LARP1B / Fold change vs veh, LARP1B / RFU, RASA1 / Fold change vs veh, RASA1 / RFU, RB1 / Fold change vs veh, RB1 / RFU, PPFIA1 / Fold change vs veh, PPFIA1 / RFU, MAT2A / Fold change vs veh, MAT2A / RFU, CCT5 / Fold change vs veh, CCT5 / RFU, WDR92 / Fold change vs veh, WDR92 / RFU, CUX1 / Fold change vs veh, CUX1 / RFU, TTC7A / Fold change vs veh, TTC7A / RFU, TMEM135 / Fold change vs veh, TMEM135 / RFU, DEPTOR / Fold change vs veh, DEPTOR / RFU, CPM / Fold change vs veh, CPM / RFU, DNAJB6 / Fold change vs veh, DNAJB6 / RFU, CACNA2D3 / Fold change vs veh, CACNA2D3 / RFU, DTX4 / Fold change vs veh, DTX4 / RFU, TFCP2 / Fold change vs veh, TFCP2 / RFU, GMCL1 /// GMCL1P1 / Fold change vs veh, GMCL1 /// GMCL1P1 / RFU, AEBP2 / Fold change vs veh, AEBP2 / RFU, SNHG1 /// SNORD22 /// SNORD25 /// SNORD26 /// SNORD27 /// SNORD28 /// SNORD29 /// SNORD31 / Fold change vs veh, SNHG1 /// SNORD22 /// SNORD25 /// SNORD26 /// SNORD27 /// SNORD28 /// SNORD29 /// SNORD31 / Fold change (Aza/veh), C12orf56 (ProbeSet 11735607_a_at) / Fold change (ACY-1035/veh), C12orf56 (ProbeSet 11735607_a_at) / Fold change (Aza/veh), FGFR1OP (ProbeSet 11751329_s_at) / Fold change (ACY-1035/veh), FGFR1OP (ProbeSet 11751329_s_at) / Fold change (Aza/veh), VPS36 (ProbeSet 11739960_a_at) / Fold change (ACY-1035/veh), VPS36 (ProbeSet 11739960_a_at) / RFU SYPL1 (11715823_x_at) / Fold change /veh SYPL1 (11715823_x_at) / RFU IGFBP7 (11715501_s_at) / Fold change /veh IGFBP7 (11715501_s_at) / RFU REEP3 (11722064_at) / Fold change /veh REEP3 (11722064_at) / RFU IGLL1 (11728026_x_at) / Fold change /veh IGLL1 (11728026_x_at): dose or concentration left out as unconfirmed. It counts as cell-based, human. Conditions: MV-4-11 cells, 48 hours.

Consider `Nc1ccc(-c2cccs2)cc1NC(=O)c1ccc2c(c1)cc(C1CC1)n2CCN1CCOCC1` [ACY-1035], for which the “RFU FAM26E (11764081_at)” value came to 5.59 RFU.
